The values that follow are results of earlier work, collected in patent US9884842B2, “Combretastatin analogs” (The Board of Trustees of the University of Arkansas, priority 2013, dated 2018).

Conditions in all cases: background; cited from earlier work
Data set [1] relates to multidrug resistant (MDR) cancer cell lines.
For data set [2], the system named is tubulin.
Data set [3] deals with tubulin. The source holds these as a separate data set.

SMILES strings stand for the structures.

As for `COc1ccc(/C=C\c2cc(OC)c(OC)c(OC)c2)cc1O` [combretastatin A-4], in data set [1], the “activity against multidrug resistant (MDR) cancer cell lines” value was “active”. The “inhibition of tubulin polymerization” value with tubulin [2] was “inhibit tubulin polymerization”. In the data set on tubulin [3], the “inhibition of binding of radiolabeled colchicines to tubulin” value was “competitively inhibit the binding of radiolabeled colchicines to tubulin”.
